Test results taken from the supplement of paper PMC10331698.
± gives the standard deviation of the averaged measurements.

Tests used:
Experiment in all cases: level (log10 ratio to DMSO vehicle control); higher = higher biomarker level / cell amount than vehicle control
Details in all cases: in DMSO
[1] = compound: CNS(=O)(=O)C(F)(F)C(F)(F)C(F)(F)C(F)(F)C(F)(F)C(F)(F)C(F)(F)C(F)(F)F [N-Methylperfluorooctanesulfonamide]
Protocol: (§1)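 BioMAP Diversity Plus panel of 12 human primary cell co-culture systems (3C, 4H, LPS, SAg, BT, BF4T, BE3C, CASM3C, HDF3CGF, KF3CT, MyoF, Mphg). Compounds were added 1 h before stimulation and left for 24 h (MyoF 48 h; BT 72 h for soluble read-outs or 6 d for IgG). Biomarkers were read by ELISA, cytotoxicity by SRB, PBMC viability and proliferation by Alamar Blue. Each well value was divided by the mean of 8 DMSO control wells on the same plate and log10 transformed; duplicate blinded samples were tested at 4 concentrations.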

[2] = compound: O=P(O)(O)CCC(F)(F)C(F)(F)C(F)(F)C(F)(F)C(F)(F)C(F)(F)C(F)(F)C(F)(F)F [((Perfluorooctyl)ethyl)phosphonic acid]
Protocol: as §1

[3] = compound: O=C(O)C(F)(F)C(F)(F)C(F)(F)C(F)(F)C(F)(F)C(F)(F)C(F)(F)C(F)(F)C(F)(F)C(F)(F)C(F)(F)C(F)(F)F [Perfluorotridecanoic acid]
Protocol: as §1

1H,1H-Heptafluorobutanol = compound: OCC(F)(F)C(F)(F)C(F)(F)F [1H,1H-Heptafluorobutanol]
Protocol: as §1

[4] = compound: O=C(O)CCC(F)(F)C(F)(F)C(F)(F)C(F)(F)C(F)(F)F [2H,2H,3H,3H-Perfluorooctanoic acid]
Protocol: as §1

Perfluorohexanoic acid = compound: O=C(O)C(F)(F)C(F)(F)C(F)(F)C(F)(F)C(F)(F)F [Perfluorohexanoic acid]
Protocol: as §1

Row | Test System | level (log10) ([1]; 6700 nM) | level (log10) ([1]; 20000 nM) | level (log10) ([1]; 60000 nM) | level (log10) ([2]; 6700 nM) | level (log10) ([2]; 20000 nM) | level (log10) ([2]; 60000 nM) | level (log10) ([3]; 1500 nM) | level (log10) ([3]; 4400 nM) | level (log10) ([3]; 13000 nM) | level (log10) ([3]; 40000 nM) | level (log10) (1H,1H-Heptafluorobutanol; 6700 nM) | level (log10) (1H,1H-Heptafluorobutanol; 20000 nM) | level (log10) (1H,1H-Heptafluorobutanol; 60000 nM) | level (log10) ([4]; 6700 nM) | level (log10) ([4]; 20000 nM) | level (log10) ([4]; 60000 nM) | level (log10) (Perfluorohexanoic acid; 6700 nM) | level (log10) (Perfluorohexanoic acid; 20000 nM) | level (log10) (Perfluorohexanoic acid; 60000 nM)
1 | LPS:M-CSF | -0.038 ± 0.018 | -0.0125 ± 0.011 | -0.017 ± 0.013 | -0.0385 ± 0.018 | -0.052 ± 0.037 | -0.183 ± 0.072 | -0.006 ± 0.042 | -0.017 ± 0.047 | -0.0135 ± 0.019 | -0.568 ± 0.03 | 0.011 ± 0.0071 | -0.007 ± 0.055 | 0.006 ± 0.016 | -0.0035 ± 0.0035 | 0.008 ± 0.014 | 0.0035 ± 0.03 | 0.002 ± 0.0099 | -0.0125 ± 0.015 | -0.0055 ± 0.025
2 | LPS:sPGE2 | -0.011 ± 0.0028 | 0.038 ± 0.0028 | 0.0305 ± 0.032 | 0.0605 ± 0.0021 | 0.0675 ± 0.011 | 0.17 ± 0.023 | 0.0325 ± 0.016 | 0.0275 ± 0.049 | -0.052 ± 0.034 | -0.022 ± 0.061 | 0.025 ± 0.04 | -0.0225 ± 0.052 | 0.009 ± 0.027 | -0.0095 ± 0.033 | -0.08 ± 0.0014 | -0.111 ± 0.049 | 0.025 ± 0.052 | 0.013 ± 0.021 | -0.009 ± 0.041
3 | 4H:SRB | -0.0045 ± 0.0092 | -0.041 ± 0.0014 | -0.0635 ± 0.054 | -0.0005 ± 0.0064 | 0.0025 ± 0.022 | -0.055 ± 0.052 | -0.0115 ± 0.0064 | -0.022 ± 0.0014 | -0.054 ± 0.042 | -0.443 ± 0.037 | -0.005 ± 0.0071 | -0.0005 ± 0.013 | 0.0065 ± 0.005 | -0.004 ± 0.0099 | -0.0115 ± 0.016 | -0.001 ± 0.014 | -0.002 ± 0.0057 | -0.0105 ± 0.00071 | 0.0045 ± 0.015
4 | BF4T:CD106/VCAM-1 | -0.0235 ± 0.023 | -0.0335 ± 0.0092 | 0.0175 ± 0.071 | -0.009 ± 0.018 | 0.0185 ± 0.019 | 0.0205 ± 0.052 | 0.005 ± 0.065 | 0.007 ± 0.028 | 0.0035 ± 0.0064 | -0.0205 ± 0.0092 | -0.0155 ± 0.0021 | -0.0105 ± 0.019 | -0.005 ± 0.0071 | -0.011 ± 0.024 | -0.03 ± 0.0057 | -0.007 ± 0.093 | 0.0025 ± 0.042 | -0.0145 ± 0.0078 | -0.017 ± 0.017
5 | BF4T:MMP-9 | -0.0095 ± 0.011 | 0.008 ± 0.0014 | -0.021 ± 0.045 | -0.014 ± 0.0014 | -0.014 ± 0.011 | 0.0305 ± 0.021 | 0.01 ± 0.027 | 0.0075 ± 0.043 | -0.0015 ± 0.036 | 0.033 ± 0.078 | -0.03 ± 0.038 | -0.001 ± 0.011 | -0.0145 ± 0.0021 | -0.0095 ± 0.03 | -0.022 ± 0.027 | 0.015 ± 0.018 | 0.0215 ± 0.0035 | -0.01 ± 0.027 | 0.0215 ± 0.018
6 | BF4T:SRB | -0.016 ± 0.0071 | -0.021 ± 0.0042 | -0.0115 ± 0.013 | -0.008 ± 0.0028 | -0.009 ± 0.0014 | -0.0045 ± 0.0078 | 0.009 ± 0.0042 | -0.0045 ± 0.005 | 0.0025 ± 0.011 | 0.008 ± 0.013 | 0.004 ± 0.017 | -0.0075 ± 0.0078 | 0.009 ± 0.017 | -0.0005 ± 0.0078 | -0.003 ± 0.013 | -0.005 ± 0.0028 | -0.0025 ± 0.00071 | -0.0095 ± 0.0092 | 0.0105 ± 0.0064
7 | LPS:CD40 | -0.0545 ± 0.083 | -0.0265 ± 0.023 | -0.0375 ± 0.0078 | -0.042 ± 0.041 | -0.0535 ± 0.00071 | -0.148 ± 0.0035 | 0.015 ± 0.092 | -0.0215 ± 0.17 | -0.032 ± 0.11 | -0.03 ± 0.092 | 0.056 ± 0.023 | 0.0345 ± 0.0064 | 0.0045 ± 0.049 | -0.005 ± 0.047 | -0.014 ± 0.02 | -0.0635 ± 0.026 | 0.041 ± 0.096 | 0.038 ± 0.13 | 0.0215 ± 0.14
8 | 4H:CCL26/Eotaxin-3 | -0.0005 ± 0.018 | -0.0415 ± 0.032 | -0.0675 ± 0.025 | -0.011 ± 0.0085 | -0.025 ± 0.0057 | -0.108 ± 0.033 | -0.0145 ± 0.018 | -0.0395 ± 0.033 | -0.056 ± 0.0071 | -0.0655 ± 0.033 | 0.017 ± 0.03 | 0.01 ± 0.014 | 0.0255 ± 0.021 | 0.032 ± 0.017 | 0.0095 ± 0.016 | 0.0125 ± 0.015 | 0.0005 ± 0.005 | -0.004 ± 0.0099 | -0.015 ± 0.0071
